Source: patent US10350271B2, “Lipidated peptides for lowering blood glucose” (USTAV ORGANICKE CHEMIE A BIOCHEMIE AKADEMIE VED CR, V.V.I., priority 2014, dated 2019)
Numbered stars: 1 amine (or outer) side, 2 acyl side, 3 side chain; on linkers, the order of the positions; unused ones are H or OH. Square brackets hold non-standard residues; d marks the D form. Side chains are listed from the residue outwards. Peptide text beside a SMILES is read from it. * marks the point of attachment. TTDA(Palmitoyl) = CCCCCCCCCCCCCCCC(=O)NCCCOCCOCCOCCCN*; Phe(3,4-Cl2) = N[C@@H](Cc1ccc(Cl)c(Cl)c1)C(=O)O; γGlu = O=C(O)[C@H](CCC(=O)[*:2])N[*:1]; Palmitoyl = CCCCCCCCCCCCCCCC(=O)*; Suc = O=C(CCC(=O)[*:2])[*:1]; Nle = CCCC[C@H](N)C(=O)O; GABA = NCCCC(=O)O

Key:
[1] = molecular target: T1, rat PrRP receptor (Rattus norvegicus, UniProt Q64121); experiment: Competitive binding in RC-4B/C rat pituitary cells (125I-rat PrRP31); settings: for % of PrRP31, RC-4B/C rat pituitary cells: affinity relative to PrRP31; for Ki: RC-4B/C cells, displacement of 125I-rat PrRP31, read-out: Ki, RC-4B/C rat pituitary cells ^25I-rat PrRP31
T1 construct: host or cells: RC-4B/C rat pituitary cell line
T1 sequence (Q64121 1-370): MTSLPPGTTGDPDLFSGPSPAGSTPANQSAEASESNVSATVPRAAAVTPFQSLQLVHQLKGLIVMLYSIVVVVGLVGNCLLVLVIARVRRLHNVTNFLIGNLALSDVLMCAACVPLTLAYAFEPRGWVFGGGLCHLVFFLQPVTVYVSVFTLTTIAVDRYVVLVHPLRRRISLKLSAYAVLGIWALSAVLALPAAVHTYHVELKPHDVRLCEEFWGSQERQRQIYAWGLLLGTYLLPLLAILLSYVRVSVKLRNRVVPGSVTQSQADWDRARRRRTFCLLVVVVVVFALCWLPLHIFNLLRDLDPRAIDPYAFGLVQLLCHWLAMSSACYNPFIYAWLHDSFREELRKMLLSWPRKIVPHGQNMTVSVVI
In short: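 Intact rat pituitary RC-4B/C cells incubated 60 min at room temperature with […] rat 125I-PrRP31 and unlabeled analog (10^−11 to 10^−4 mol·l^−1) in HEPES pH 7.4 buffer. Cell-bound radioactivity γ-counted after NaOH lysis; one-site competition fit.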

[2] = molecular target: T2, human PrRP receptor GPR10 (Homo sapiens, UniProt P49683); experiment: Competitive binding in CHO cells transfected with human GPR10 (human 125I-PrRP31); settings: for Ki: CHO cells, human 125I-PrRP31, read-out: Ki, GPR10 human receptor transfected in CHO cells; for % of PrRP31, GPR10 human receptor transfected in CHO cells: affinity relative to PrRP31
T2 construct: host or cells: CHO cells
T2 sequence (P49683 1-370): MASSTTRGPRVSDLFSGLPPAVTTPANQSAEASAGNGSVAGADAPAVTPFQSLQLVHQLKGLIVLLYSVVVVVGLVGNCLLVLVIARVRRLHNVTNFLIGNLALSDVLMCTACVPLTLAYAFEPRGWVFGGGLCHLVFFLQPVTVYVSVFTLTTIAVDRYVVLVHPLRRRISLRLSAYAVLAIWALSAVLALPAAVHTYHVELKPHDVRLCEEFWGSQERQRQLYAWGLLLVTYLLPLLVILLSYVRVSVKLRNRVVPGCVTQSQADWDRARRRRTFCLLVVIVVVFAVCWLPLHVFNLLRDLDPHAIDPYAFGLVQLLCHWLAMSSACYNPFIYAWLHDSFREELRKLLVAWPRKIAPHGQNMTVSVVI
In short: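 GPR10-transfected CHO cells (40-80 thousand/well) incubated 60 min at room temperature with 5×10^-11 mol·l^-1 human 125I-PrRP31 and unlabeled analog at 10^-11 to 10^-4 mol·l^-1 in Tris binding buffer pH 7.4. Cells solubilized in 0.1 mol/l NaOH, γ-counted; one-site nonlinear regression fit.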

[3] = system: C57BL/6 mice; experiment: Food intake in fasted mice after SC injection; type: in vivo; settings: 5 mg/kg SC, 45 min after injection
In short: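 Overnight-fasted animals (food removed 17 h before dosing, water available) in individual cages got saline, PrRP or lipidated PrRP analogs SC at 1-10 mg/kg.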

[4] = system: Wistar rats; experiment: Food intake in fasted rats after SC injection; type: in vivo; settings: overnight fasted rats, compared to controls given vehicle
Description: NMRI mice, C57BL/6 mice, and Wistar rats (AnLab, Prague, Czech Republic) were housed in a temperature of 23° C. and a daily cycle of 12 h light and dark (light from 6:00). They were given ad libitum water and a standard chow diet that contained 25, 9 and 66% of calories of protein, fat and carbohydrate respectively. Energy content of the feed was 3.4 kcal/g (St-1, Mlýn Kocanda, Czech Republic). Db/db mice and their controls (C57BL/6 background) were obtained from Taconic (Denmark), housed under the same conditions as described above, and fed by Altromin (Taconic, Denmark). ZDF-Lepr^fa/Crl, diabetic fa/fa male rats were obtained from Charles River (France), housed under same conditions as described above, and fed with a Purina 5008 diet (IPS Product Supplies Limited, UK). All experiments followed the ethical guidelines for animal experiments and the law of the Czech Republic Nr. 246/1992.
In experiments with C57BL/6 mice or Wistar rats, food intake was measured with overnight fasted animals in individual cages. Food was withdrawn 17 hours prior to injection of lipidated analog of prolactin releasing peptide (PrRP); free access to water was maintained. The administration of either saline, PrRP, or lipidated analogs was performed by SC injection at doses of 1-10 mg/kg (which corresponded to a volume of 0.2 ml/mouse and 0.1 ml/100 g weight of rat). Fifteen minutes after the lipidated analog of prolactin releasing peptide (PrRP) administration, the mice were given pre-weighed food. The food was then weighed every 30 minutes for 5-10 hours. The administration of each dose was performed at least twice, and each group of mice consisted of at least 6 mice.

Row | % of PrRP31, RC-4B/C rat pituitary cells [1] [%] | Ki [2] [nM] | % of PrRP31, GPR10 human receptor transfected in CHO cells [2] [%] | Ki [1] [nM] | Structure (SMILES) | Food intake in mice % of saline-treated group [3] [%] | Food intake in rats [4]
1 | 236 | 4.72 ± 0.35 | 83 | – | CCCCCCCCCCCCCCCC(=O)N[C@@H](CCC(=O)NCCCC[C@H](NC(=O)[C@@H](NC(=O)[C@H](CCC(=O)O)NC(=O)[C@H](CCSC)NC(=O)[C@H](CO)NC(=O)[C@H](Cc1c[nH]cn1)NC(=O)[C@H](CCCNC(=N)N)NC(=O)[C@H](Cc1c[nH]cn1)NC(=O)[C@@H](NC(=O)[C@H](CCC(=O)O)NC(=O)[C@@H](N)CO)[C@@H](C)O)[C@@H](C)CC)C(=O)N[C@H](C(=O)N1CCC[C@H]1C(=O)N[C@@H](CC(=O)O)C(=O)N[C@H](C(=O)N[C@@H](CC(N)=O)C(=O)N1CCC[C@H]1C(=O)N[C@@H](C)C(=O)N[C@@H](Cc1c[nH]c2ccccc12)C(=O)N[C@@H](Cc1ccc(O)cc1)C(=O)N[C@@H](C)C(=O)N[C@@H](CO)C(=O)N[C@@H](CCCNC(=N)N)C(=O)NCC(=O)N[C@H](C(=O)N[C@@H](CCCNC(=N)N)C(=O)N1CCC[C@H]1C(=O)N[C@H](C(=O)NCC(=O)N[C@@H](CCCNC(=N)N)C(=O)N[C@@H](Cc1ccccc1)C(N)=O)C(C)C)[C@@H](C)CC)[C@@H](C)CC)[C@@H](C)O)C(=O)O [Analog 55] (H-SETHRHSMEIK([γGlu-Palmitoyl])TPDINPAWYASRGIRPVGRF-NH2) | 12 | significantly reduced
2 | 190 | 9.19 ± 0.96 | 42.5 | 1.26 ± 0.57 | CCCCCCCCCCCCCCCC(=O)NCCCC(=O)NCCCC[C@H](NC(=O)[C@@H](NC(=O)[C@H](CCC(=O)O)NC(=O)[C@H](CCSC)NC(=O)[C@H](CO)NC(=O)[C@H](Cc1c[nH]cn1)NC(=O)[C@H](CCCNC(=N)N)NC(=O)[C@H](Cc1c[nH]cn1)NC(=O)[C@@H](NC(=O)[C@H](CCCNC(=N)N)NC(=O)[C@@H](N)CO)[C@@H](C)O)[C@@H](C)CC)C(=O)N[C@H](C(=O)N1CCC[C@H]1C(=O)N[C@@H](CC(=O)O)C(=O)N[C@H](C(=O)N[C@@H](CC(N)=O)C(=O)N1CCC[C@H]1C(=O)N[C@@H](C)C(=O)N[C@@H](Cc1c[nH]c2ccccc12)C(=O)N[C@@H](Cc1ccc(O)cc1)C(=O)N[C@@H](C)C(=O)N[C@@H](CO)C(=O)N[C@@H](CCCNC(=N)N)C(=O)NCC(=O)N[C@H](C(=O)N[C@@H](CCCNC(=N)N)C(=O)N1CCC[C@H]1C(=O)N[C@H](C(=O)NCC(=O)N[C@@H](CCCNC(=N)N)C(=O)N[C@@H](Cc1ccccc1)C(N)=O)C(C)C)[C@@H](C)CC)[C@@H](C)CC)[C@@H](C)O [Analog 53] (H-SRTHRHSMEIK([GABA-Palmitoyl])TPDINPAWYASRGIRPVGRF-NH2) | 25 | significantly reduced
3 | – | 6.37 ± 0.78 | 61 | – | CCCCCCCCCCCCCCCC(=O)NCCCC[C@H](NC(=O)[C@@H](NC(=O)[C@H](CCC(=O)O)NC(=O)[C@H](CCSC)NC(=O)[C@H](CO)NC(=O)[C@H](Cc1c[nH]cn1)NC(=O)[C@H](CCCNC(=N)N)NC(=O)[C@H](Cc1c[nH]cn1)NC(=O)[C@@H](NC(=O)[C@H](CCCNC(=N)N)NC(=O)[C@@H](N)CO)[C@@H](C)O)[C@@H](C)CC)C(=O)N[C@H](C(=O)N1CCC[C@H]1C(=O)N[C@@H](CC(=O)O)C(=O)N[C@H](C(=O)N[C@@H](CC(N)=O)C(=O)N1CCC[C@H]1C(=O)N[C@@H](C)C(=O)N[C@@H](Cc1c[nH]c2ccccc12)C(=O)N[C@@H](Cc1ccc(O)cc1)C(=O)N[C@@H](C)C(=O)N[C@@H](CO)C(=O)N[C@@H](CCCNC(=N)N)C(=O)NCC(=O)N[C@H](C(=O)N[C@@H](CCCNC(=N)N)C(=O)N1CCC[C@H]1C(=O)N[C@H](C(=O)NCC(=O)N[C@@H](CCCNC(=N)N)C(=O)N[C@@H](Cc1ccccc1)C(N)=O)C(C)C)[C@@H](C)CC)[C@@H](C)CC)[C@@H](C)O [Analog 48] (H-SRTHRHSMEIK(Palmitoyl)TPDINPAWYASRGIRPVGRF-NH2) | 13 | significantly reduced
4 | 85 | 32.4 ± 3.57 | 12 | – | CCCCCCCCCCCCCCCC(=O)NCCCOCCOCCOCCCNC(=O)CCC(=O)NCCCC[C@H](NC(=O)[C@@H](NC(=O)[C@H](CCC(=O)O)NC(=O)[C@H](CCSC)NC(=O)[C@H](CO)NC(=O)[C@H](Cc1c[nH]cn1)NC(=O)[C@H](CCCNC(=N)N)NC(=O)[C@H](Cc1c[nH]cn1)NC(=O)[C@@H](NC(=O)[C@H](CCCNC(=N)N)NC(=O)[C@H](CO)NC(=O)CCC(=O)NCCCOCCOCCOCCCNC(=O)CCCCCCCCCCCCCCC)[C@@H](C)O)[C@@H](C)CC)C(=O)N[C@H](C(=O)N1CCC[C@H]1C(=O)N[C@@H](CC(=O)O)C(=O)N[C@H](C(=O)N[C@@H](CC(N)=O)C(=O)N1CCC[C@H]1C(=O)N[C@@H](C)C(=O)N[C@@H](Cc1c[nH]c2ccccc12)C(=O)N[C@@H](Cc1ccc(O)cc1)C(=O)N[C@@H](C)C(=O)N[C@@H](CO)C(=O)N[C@@H](CCCNC(=N)N)C(=O)NCC(=O)N[C@H](C(=O)N[C@@H](CCCNC(=N)N)C(=O)N1CCC[C@H]1C(=O)N[C@H](C(=O)NCC(=O)N[C@@H](CCCNC(=N)N)C(=O)N[C@@H](Cc1ccccc1)C(N)=O)C(C)C)[C@@H](C)CC)[C@@H](C)CC)[C@@H](C)O [Analog 59] ({TTDA(Palmitoyl)-Suc}-SRTHRHSMEIK([Suc-TTDA(Palmitoyl)])TPDINPAWYASRGIRPVGRF-NH2) | 23 | –
5 | 379 | 1.05 ± 0.41 | 370 | 1.3 ± 0.29 | CCCCCCCCCCCCCCCC(=O)N[C@@H](CO)C(=O)N[C@@H](CCCNC(=N)N)C(=O)N[C@@H](C)C(=O)N[C@@H](Cc1c[nH]cn1)C(=O)N[C@@H](CCC(N)=O)C(=O)N[C@@H](Cc1c[nH]cn1)C(=O)N[C@@H](CO)C(=O)N[C@@H](CCCC)C(=O)N[C@@H](CCC(=O)O)C(=O)N[C@H](C(=O)N[C@@H](CCCNC(=N)N)C(=O)N[C@H](C(=O)N1CCC[C@H]1C(=O)N[C@@H](CC(=O)O)C(=O)N[C@H](C(=O)N[C@@H](CC(N)=O)C(=O)N1CCC[C@H]1C(=O)N[C@@H](C)C(=O)N[C@@H](Cc1c[nH]c2ccccc12)C(=O)N[C@@H](Cc1ccc(O)cc1)C(=O)N[C@H](C(=O)NCC(=O)N[C@@H](CCCNC(=N)N)C(=O)NCC(=O)N[C@H](C(=O)N[C@@H](CCCNC(=N)N)C(=O)N1CCC[C@H]1C(=O)N[C@H](C(=O)NCC(=O)N[C@@H](CCCNC(=N)N)C(=O)N[C@@H](Cc1ccc(Cl)c(Cl)c1)C(N)=O)C(C)C)[C@@H](C)CC)[C@@H](C)O)[C@@H](C)CC)[C@@H](C)O)[C@@H](C)O [Analog 15] (Palmitoyl-SRAHQHS[Nle]ETRTPDINPAWYTGRGIRPVGR[Phe(3,4-Cl2)]-NH2) | 5 | –
